Source: patent US6670345B1 (Dabur Research Foundation, priority 1997, dated 2003)
In brackets after ≈: the same amount, converted by molar mass.

Tests used:
Details in all cases: 72 hours
human lung (L132) = experiment: MTT cytotoxicity assay, human lung (L132); assay type: cell-based
Protocol: (§1) After 72 hours, the assay was terminated and percent cyotoxicities calculated.

human prostate (DU145) = experiment: MTT cytotoxicity assay, human prostate (DU145); assay type: cell-based
Protocol: as §1

[1] = test system: ovarian cancer cells (PA-1); experiment: MTT cytotoxicity assay, ovarian cancer cells (PA-1); assay type: cell-based, human
Protocol: as §1

leukemia cells (MOLT-4) = experiment: MTT cytotoxicity assay, leukemia cells (MOLT-4); assay type: cell-based, human
Protocol: as §1

human larynx (HeP.2) = experiment: MTT cytotoxicity assay, human larynx (HeP.2); assay type: cell-based
Protocol: as §1

human colon (HT29) = experiment: MTT cytotoxicity assay, human colon (HT29); assay type: cell-based
Protocol: as §1

lymphoma cells (U937) = experiment: MTT cytotoxicity assay, lymphoma cells (U937); assay type: cell-based, human
Protocol: as §1

Question: With `CC(C)C1CCC2(C(=O)O)CCC3(C)C(CCC4C5(C)CCC(=NNC(=O)c6ccccc6)C(C)(C)C5CCC43C)C12` (stereo not shown) [Derivative 807] as the compound, how does the “ED50 Lung L 132” value (human lung (L132)) read?
Answer: The value was less than 0.5 µg/mL.

Question: What about the “ED50 Prostate DU 145” value (human prostate (DU145)) of the same compound?
Answer: Its value is greater than 10 µg/mL.

Question: And the “ED50 Ovary PA-I” value [1]?
Answer: Its value is 1.7 µg/mL (≈ 2.96 µM).

Question: What about the “ED50 Leukemia MOLT-4” value (leukemia cells (MOLT-4)) of the same compound?
Answer: The value was 1.0 µg/mL (≈ 1.74 µM).

Question: And the “ED50 Larynx Hep. 2” value (human larynx (HeP.2))?
Answer: Its value is 4.0 µg/mL (≈ 6.96 µM).

Question: Which “ED50 Colon HT-29” value (human colon (HT29)) does the source give for `C=C(C)C1CCC2(C(=O)O)CCC3(C)C(CCC4C5(C)CCC(OC(=O)Cc6cc(OC)ccc6OC)C(C)(C)C5CCC43C)C12` (stereo not shown) [Derivative 1108] here?
Answer: The value was greater than 10 µg/mL.

Question: What about the “ED50 Lung L 132” value (human lung (L132)) of the same compound?
Answer: Its value is 4.6 µg/mL (≈ 7.25 µM).

Question: And the “ED50 Lymphoma U937” value (lymphoma cells (U937))?
Answer: The value was 1.0 µg/mL (≈ 1.58 µM).

Question: What about the “ED50 Prostate DU 145” value (human prostate (DU145)) of the same compound?
Answer: The value was greater than 4 µg/mL.

Question: And the “ED50 Ovary PA-I” value [1]?
Answer: Its value is 1.3 µg/mL (≈ 2.05 µM).

Question: What about the “ED50 Leukemia MOLT-4” value (leukemia cells (MOLT-4)) of the same compound?
Answer: The value was 1.5 µg/mL (≈ 2.36 µM).

Question: And the “ED50 Larynx Hep. 2” value (human larynx (HeP.2))?
Answer: Its value is 1.7 µg/mL (≈ 2.68 µM).

Question: How did the “ED50 Colon HT-29” value (human colon (HT29)) turn out when `C=C(C)[C@@H]1CC[C@]2(C(=O)O)CC[C@]3(C)[C@H](CC[C@@H]4[C@@]5(C)CC[C@H](O)C(C)(C)[C@@H]5CC[C@]43C)[C@@H]12` [BA] was run?
Answer: The value was 1.8 µg/mL (≈ 3.94 µM).

Question: And the “ED50 Lung L 132” value (human lung (L132))?
Answer: The value was 3.2 µg/mL (≈ 7.01 µM).

Question: And the “ED50 Lymphoma U937” value (lymphoma cells (U937))?
Answer: The value was 0.7 µg/mL (≈ 1.53 µM).

Question: What about the “ED50 Prostate DU 145” value (human prostate (DU145)) of the same compound?
Answer: Its value is greater than 10 µg/mL.

Question: And the “ED50 Ovary PA-I” value [1]?
Answer: Its value is 17 µg/mL (≈ 37.2 µM).

Question: What about the “ED50 Leukemia MOLT-4” value (leukemia cells (MOLT-4)) of the same compound?
Answer: The value was 1.9 µg/mL (≈ 4.16 µM).

Question: And the “ED50 Larynx Hep. 2” value (human larynx (HeP.2))?
Answer: Its value is greater than 10 µg/mL.

Question: For `CC(C)C1CCC2(C(=O)O)CCC3(C)C(CCC4C5(C)CCC(OC(=O)c6ccc(F)cc6F)C(C)(C)C5CCC43C)C12` (stereo not shown) [Derivative 937], which “ED50 Colon HT-29” value (human colon (HT29)) is on record?
Answer: The value was 1.7 µg/mL (≈ 2.84 µM).

Question: What about the “ED50 Lung L 132” value (human lung (L132)) of the same compound?
Answer: Its value is 1.1 µg/mL (≈ 1.84 µM).

Question: What about the “ED50 Lymphoma U937” value (lymphoma cells (U937)) of the same compound?
Answer: The value was 1.2 µg/mL (≈ 2 µM).

Question: What about the “ED50 Prostate DU 145” value (human prostate (DU145)) of the same compound?
Answer: Its value is 2.5 µg/mL (≈ 4.17 µM).

Question: What about the “ED50 Ovary PA-I” value [1] of the same compound?
Answer: The value was 1.6 µg/mL (≈ 2.67 µM).

Question: And the “ED50 Leukemia MOLT-4” value (leukemia cells (MOLT-4))?
Answer: Its value is 0.9 µg/mL (≈ 1.5 µM).

Question: What about the “ED50 Larynx Hep. 2” value (human larynx (HeP.2)) of the same compound?
Answer: Its value is 5.9 µg/mL (≈ 9.85 µM).

Question: For `CC(C)C1CCC2(C(=O)O)CCC3(C)C(CCC4C5(C)CCC(OS(C)(=O)=O)C(C)(C)C5CCC43C)C12` (stereo not shown) [Derivative 789], which “ED50 Colon HT-29” value (human colon (HT29)) is on record?
Answer: The value was 1.4 µg/mL (≈ 2.61 µM).

Question: What about the “ED50 Lung L 132” value (human lung (L132)) of the same compound?
Answer: Its value is 6.5 µg/mL (≈ 12.1 µM).

Question: And the “ED50 Lymphoma U937” value (lymphoma cells (U937))?
Answer: Its value is 1.4 µg/mL (≈ 2.61 µM).

Question: And the “ED50 Prostate DU 145” value (human prostate (DU145))?
Answer: The value was greater than 10 µg/mL.

Question: And the “ED50 Ovary PA-I” value [1]?
Answer: The value was greater than 4.0 µg/mL.

Question: What about the “ED50 Leukemia MOLT-4” value (leukemia cells (MOLT-4)) of the same compound?
Answer: Its value is 2.0 µg/mL (≈ 3.73 µM).

Question: And the “ED50 Larynx Hep. 2” value (human larynx (HeP.2))?
Answer: Its value is greater than 10 µg/mL.

Question: `C=C(C)C1CCC2(C(=O)O)CCC3(C)C(CCC4C5(C)CCC(OS(C)(=O)=O)C(C)(C)C5CCC43C)C12` (stereo not shown) [Derivative 751] was tested. Which “ED50 Lung L 132” value (human lung (L132)) did it give?
Answer: Its value is 5 µg/mL (≈ 9.35 µM).

Question: And the “ED50 Lymphoma U937” value (lymphoma cells (U937))?
Answer: Its value is greater than 4 µg/mL.

Question: What about the “ED50 Prostate DU 145” value (human prostate (DU145)) of the same compound?
Answer: The value was greater than 10 µg/mL.

Question: And the “ED50 Leukemia MOLT-4” value (leukemia cells (MOLT-4))?
Answer: The value was 0.65 µg/mL (≈ 1.22 µM).

Question: What about the “ED50 Larynx Hep. 2” value (human larynx (HeP.2)) of the same compound?
Answer: Its value is 7.0 µg/mL (≈ 13.1 µM).

Question: Which results are given for `CC(C)C1CCC2(C(=O)O)CCC3(C)C(CCC4C5(C)CCC(OC(=O)c6ccccc6C(F)(F)F)C(C)(C)C5CCC43C)C12` (stereo not shown) [Derivative 943]?
Answer: ED50 Colon HT-29 (human colon (HT29)): >10 µg/mL; ED50 Lung L 132 (human lung (L132)): 4.0 µg/mL (≈ 6.34 µM); ED50 Lymphoma U937 (lymphoma cells (U937)): 3.2 µg/mL (≈ 5.07 µM); ED50 Prostate DU 145 (human prostate (DU145)): >4 µg/mL; ED50 Ovary PA-I [1]: >4.0 µg/mL; ED50 Leukemia MOLT-4 (leukemia cells (MOLT-4)): 1.6 µg/mL (≈ 2.54 µM); ED50 Larynx Hep. 2 (human larynx (HeP.2)): 2.0 µg/mL (≈ 3.17 µM)

Question: `CC(C)C1CCC2(C(=O)OC3CCC4(C)C(CCC5(C)C4CCC4C6C(C(C)C)CCC6(C(=O)O)CCC45C)C3(C)C)CCC3(C)C(CCC4C5(C)CC(Br)C(=O)C(C)(C)C5CCC43C)C12` (stereo not shown) [Derivative 1161] was tested. Which “ED50 Colon HT-29” value (human colon (HT29)) did it give?
Answer: The value was 3.5 µg/mL (≈ 3.58 µM).

Question: And the “ED50 Lung L 132” value (human lung (L132))?
Answer: The value was 3.5 µg/mL (≈ 3.58 µM).

Question: And the “ED50 Lymphoma U937” value (lymphoma cells (U937))?
Answer: Its value is 0.3 µg/mL (≈ 0.307 µM).

Question: What about the “ED50 Prostate DU 145” value (human prostate (DU145)) of the same compound?
Answer: Its value is 0.4 µg/mL (≈ 0.41 µM).

Question: And the “ED50 Ovary PA-I” value [1]?
Answer: Its value is 1.2 µg/mL (≈ 1.23 µM).

Question: What about the “ED50 Leukemia MOLT-4” value (leukemia cells (MOLT-4)) of the same compound?
Answer: The value was 0.34 µg/mL (≈ 0.348 µM).

Question: And the “ED50 Larynx Hep. 2” value (human larynx (HeP.2))?
Answer: The value was 1.4 µg/mL (≈ 1.43 µM).

Question: Which “ED50 Colon HT-29” value (human colon (HT29)) does the source give for `C=C(C)C1CCC2(C(=O)O)CCC3(C)C(CCC4C5(C)CCC(OC(=O)c6cc(F)cc(F)c6)C(C)(C)C5CCC43C)C12` (stereo not shown) [Derivative 935] here?
Answer: The value was greater than 10 µg/mL.

Question: And the “ED50 Lung L 132” value (human lung (L132))?
Answer: Its value is 1.2 µg/mL (≈ 2.01 µM).

Question: What about the “ED50 Lymphoma U937” value (lymphoma cells (U937)) of the same compound?
Answer: Its value is 2.6 µg/mL (≈ 4.36 µM).

Question: And the “ED50 Prostate DU 145” value (human prostate (DU145))?
Answer: The value was 3.2 µg/mL (≈ 5.36 µM).

Question: And the “ED50 Leukemia MOLT-4” value (leukemia cells (MOLT-4))?
Answer: The value was 0.6 µg/mL (≈ 1.01 µM).

Question: And the “ED50 Larynx Hep. 2” value (human larynx (HeP.2))?
Answer: The value was greater than 10 µg/mL.

Question: With `CC(C)C1CCC2(C(=O)O)CCC3(C)C(CCC4C5(C)CCC(NNc6ccccc6)C(C)(C)C5CCC43C)C12` (stereo not shown) [Derivative 878] as the compound, how does the “ED50 Colon HT-29” value (human colon (HT29)) read?
Answer: The value was 1.75 µg/mL (≈ 3.19 µM).

Question: And the “ED50 Lung L 132” value (human lung (L132))?
Answer: Its value is 0.8 µg/mL (≈ 1.46 µM).

Question: And the “ED50 Lymphoma U937” value (lymphoma cells (U937))?
Answer: Its value is 0.4 µg/mL (≈ 0.729 µM).

Question: What about the “ED50 Ovary PA-I” value [1] of the same compound?
Answer: Its value is 3.5 µg/mL (≈ 6.38 µM).

Question: And the “ED50 Leukemia MOLT-4” value (leukemia cells (MOLT-4))?
Answer: Its value is 1.6 µg/mL (≈ 2.92 µM).

Question: And the “ED50 Larynx Hep. 2” value (human larynx (HeP.2))?
Answer: Its value is 2.25 µg/mL (≈ 4.1 µM).
